Test results: patent publication US9133157B2, “HIV protease inhibitors” (Merck Canada Inc., priority 2011, dated 2015)

Target: WT HIV-1 protease (Human immunodeficiency virus type 1 group M subtype B (isolate HXB2) (HIV-1), UniProt P04585)
Experiment: Assay for inhibition of microbial expressed HIV protease (Procedure A, peptide substrate, HPLC fluorescence detection)
Format: biochemical
Details: WT HIV-1 protease 10 pM, substrate 400 micromolar, pH 5.5, 30 min preincubation, 1 hour at 30° C.; read-out: Enzyme inhibition IC50
Method: The inhibition of WT HIV-1 protease was studied using the reaction of the protease (expressed in Eschericia coli) with a peptide substrate [Val-Ser-Gln-Asn-(betanaphthyl)Ala-Pro-Ile-Val (SEQ ID NO:1)]. Compounds were tested using Procedure A. In Procedure A, the test compound was first preincubated with the enzyme in assay buffer (50 mM sodium acetate, pH 5.5, 100 mM NaCl, and 0.1% BSA) for 30 minutes at room temperature. Substrate was then added to 400 micromolar in a total volume of 80 microliters containing 10 picomolar HIV-1 protease and the reaction was incubated for 1 hour at 30° C. The reaction was quenched with the addition of 120 microliters of 10% phosphoric acid. The product formation was determined after separation of product and substrate on a Zorbax Eclipse XDB-C18 column (Agilent Technologies, Santa Clara, Calif.) connected to an Agilent 1100 high performance liquid chromatography system with fluorescence detection (excitation 270 nanometer and emission 330 nanometer).

| Compound | IC50 [nM] |
| --- | --- |
| COC(=O)N[C@H](C(=O)N[C@H](c1ccc([C@@H](CO)N(CCC(C)(C)C)S(=O)(=O)c2ccc(N)cc2)s1)C(F)(F)F)C(c1ccccc1)c1ccccc1 [Example 44, N-[(1S)-1-{5-[(1R)-1-{[(4-aminophenyl)sulfonyl](3,3-dimethylbutyl)amino}-2-hydroxyethyl]thiophen-2-yl}-2,2,2-trifluoroethyl]-Nα-(methoxycarbonyl)-β-phenyl-L-phenylalaninamide] | 0.196 |
| [2H]C([2H])([2H])C(N([C@H](CO)c1ccc([C@@H](NC(=O)[C@@H](NC(=O)OC)C(c2ccccc2)c2ccccc2)C(F)(F)F)s1)S(=O)(=O)c1ccc(N)cc1)C([2H])([2H])[2H] [Example 47, N-[(1S)-1-{5-[(1R)-1-{[(4-aminophenyl)sulfonyl][(1,1,1,3,3,3-^2H6)propan-2-yl]amino}-2-hydroxyethyl]thiophen-2-yl}-2,2,2-trifluoroethyl]-Nα-(methoxycarbonyl)-β-phenyl-L-phenylalaninamide] | 33.7 |
| COC(=O)N[C@H](C(=O)N[C@H](c1ccc([C@@H](CO)N(C(C)C)S(=O)(=O)c2ccc(N)s2)s1)C(F)(F)F)C(c1ccccc1)c1ccccc1 [Example 50, N-[(1S)-1-{5-[(1R)-1-{[(5-aminothiophen-2-yl)sulfonyl](propan-2-yl)amino}-2-hydroxyethyl]thiophen-2-yl}-2,2,2-trifluoroethyl]-Nα-(methoxycarbonyl)-β-phenyl-L-phenylalaninamide] | 121 |
| COC(=O)N[C@H](C(=O)N[C@H](c1ccc([C@@H](CO)N(CCC(C)(C)C)S(=O)(=O)c2ccn3ccnc3c2)s1)C(F)(F)F)C(c1ccccc1)c1ccccc1 [Example 51, N-[(1S)-1-(5-{(1R)-1-[(3,3-dimethylbutyl)(imidazo[1,2-c]pyridin-7-ylsulfonyl)amino]-2-hydroxyethyl}thiophen-2-yl)-2,2,2-trifluoroethyl]-Nα-(methoxycarbonyl)-β-phenyl-L-phenylalaninamide] | 17.5 |
| COC(=O)N[C@H](C(=O)N[C@H](c1ccc([C@@H](CO)N(CCC(C)(C)C)S(=O)(=O)c2cc(F)c(CO)c(F)c2)s1)C(F)(F)F)C(c1ccccc1)c1ccccc1 [Example 52, N-[(1S)-1-(5-{(1R)-1-[{[3,5-difluoro-4-(hydroxymethyl)phenyl]sulfonyl}(3,3-dimethylbutyl)amino]-2-hydroxyethyl}thiophen-2-yl)-2,2,2-trifluoroethyl]-Nα-(methoxycarbonyl)-β-phenyl-L-phenylalaninamide] | 2 |
| COC(=O)N[C@H](C(=O)N[C@H](c1ccc([C@@H](CO)N(CCC(C)(C)C)S(=O)(=O)c2ccc(CO)cc2)s1)C(F)(F)F)C(c1ccccc1)c1ccccc1 [Example 53, N-[(1S)-1-(5-{(1R)-1-[(3,3-dimethylbutyl){[4-(hydroxymethyl)phenyl]sulfonyl}amino]-2-hydroxyethyl}thiophen-2-yl)-2,2,2-trifluoroethyl]-Nα-(methoxycarbonyl)-β-phenyl-L-phenylalaninamide] | 0.156 |
| COC(=O)N[C@H](C(=O)N[C@H](c1ccc([C@@H](CO)N(CCC(C)(C)C)S(=O)(=O)c2cc3ccccc3[nH]2)s1)C(F)(F)F)C(c1ccccc1)c1ccccc1 [Example 55, N-[(1S)-1-(5-{(1R)-1-[(3,3-dimethylbutyl)(1H-indol-2-ylsulfonyl)amino]-2-hydroxyethyl}thiophen-2-yl)-2,2,2-trifluoroethyl]-Nα-(methoxycarbonyl)-β-phenyl-L-phenylalaninamide] | 45.8 |
| COC(=O)N[C@H](C(=O)N[C@H](c1ccc([C@@H](CO)N(CCC(C)(C)C)S(=O)(=O)c2ccc(CO)c(C(F)(F)F)c2)s1)C(F)(F)F)C(c1ccccc1)c1ccccc1 [Example 56, N-[(1S)-1-(5-{(1R)-1-[(3,3-dimethylbutyl){[4-(hydroxymethyl)-3-(trifluoromethyl)phenyl]sulfonyl}amino]-2-hydroxyethyl}thiophen-2-yl)-2,2,2-trifluoroethyl]-Nα-(methoxycarbonyl)-β-phenyl-L-phenylalaninamide] | 59.4 |
| COC(=O)N[C@H](C(=O)N[C@H](c1ccc([C@@H](CO)N(CCC(C)(C)C)S(=O)(=O)c2ccc(N)cn2)s1)C(F)(F)F)C(c1ccccc1)c1ccccc1 [Example 57, N-[(1S)-1-{5-[(1R)-1-{[(5-aminopyridin-2-yl)sulfonyl](3,3-dimethylbutyl)amino}-2-hydroxyethyl]thiophen-2-yl}-2,2,2-trifluoroethyl]-Nα-(methoxycarbonyl)-β-phenyl-L-phenylalaninamide] | 1.32 |
| COC(=O)N[C@H](C(=O)N[C@H](c1ccc([C@@H](CO)N(CCC(C)(C)C)S(=O)(=O)c2cccc3[nH]ccc23)s1)C(F)(F)F)C(c1ccccc1)c1ccccc1 [Example 59, N-[(1S)-1-(5-{(1R)-1-[(3,3-dimethylbutyl)(1H-indol-4-ylsulfonyl)amino]-2-hydroxyethyl}thiophen-2-yl)-2,2,2-trifluoroethyl]-Nα-(methoxycarbonyl)-β-phenyl-L-phenylalaninamide] | 4.22 |
| COC(=O)N[C@H](C(=O)N[C@H](c1ccc([C@@H](CO)N(CC(C)C)S(=O)(=O)c2ccc(N)cc2)s1)C(F)(F)F)C(c1ccccc1)c1ccccc1 [Example 60, N-[(1S)-1-{5-[(1R)-1-{[(4-aminophenyl)sulfonyl](2-methylpropyl)amino}-2-hydroxyethyl]thiophen-2-yl}-2,2,2-trifluoroethyy]-Nα-(methoxycarbonyl)-β-phenyl-L-phenylalaninamide] | 2.01 |
| COC(=O)N[C@H](C(=O)N[C@@H](c1ccc([C@@H](CO)N(CC(C)C)S(=O)(=O)c2ccc(N)cc2)s1)C(F)(F)F)C(c1ccccc1)c1ccccc1 [Example 61, N-[(1R)-1-{5-[(1R)-1-{[(4-aminophenyl)sulfonyl](2-methylpropyl)amino}-2-hydroxyethyl]thiophen-2-yl}-2,2,2-trifluoroethyl]-Nα-(methoxycarbonyl)-β-phenyl-L-phenylalaninamide] | 23 |
| CCN([C@H](CO)c1ccc([C@@H](NC(=O)[C@@H](NC(=O)OC)C(c2ccccc2)c2ccccc2)C(F)(F)F)s1)S(=O)(=O)c1ccc(N)cc1 [Example 62] | 18.5 |
| COC(=O)N[C@H](C(=O)N[C@H](c1ccc([C@@H](CO)N(CC(C)C)S(=O)(=O)c2ccc(N)cc2)s1)C1CC1)C(c1ccccc1)c1ccccc1 [Example 63, N-[(S)-{[4(1R)-1-{[(4-aminophenyl)sulfonyl](2-methylpropyl)amino}-2-hydroxyethyl]thiophen-2-yl}(cyclopropyl)methyl]-Nα-(methoxycarbonyl)-β-phenyl-L-phenylalaninamide] | 3.98 |
| COC(=O)N[C@H](C(=O)NC(C)(C)c1ccc(C(CO)N(CCC(C)C)S(=O)(=O)c2ccccc2)s1)C(c1ccccc1)c1ccccc1 (stereo partly drawn) [Example 64] | 6.48 |
| COC(=O)N[C@H](C(=O)N[C@H](c1ccc([C@@H](CO)N(C(C)C)S(=O)(=O)c2ccc(CO)cc2)s1)C(F)(F)F)C(c1ccccc1)c1ccccc1 [Example 65, Nα-(methoxycarbonyl)-β-phenyl-N-[(1S)-2,2,2-trifluoro-1-(5-{(1R)-2-hydroxy-1-[{[4-(hydroxymethyl)phenyl]sulfonyl}(propan-2-yl)amino]ethyl}thiophen-2-yl)ethyl]-L-phenylalaninamide] | 0.18 |
| COC(=O)Nc1ccc(S(=O)(=O)N(CCC(C)(C)C)[C@H](CO)c2ccc([C@@H](NC(=O)[C@@H](NC(=O)OC)C(c3ccccc3)c3ccccc3)C(F)(F)F)s2)cc1 [Example 70, N-[(1S)-1-(5-{1-[(3,3-dimethylbutyl)({4-[(methoxycarbonyl)amino]phenyl}sulfonyl)amino]-2-hydroxyethyl}thiophen-2-yl)-2,2,2-trifluoroethyl]-Nα-(methoxycarbonyl)-β-phenyl-L-phenylalaninamide] | 3.16 |
| COC(=O)N[C@H](C(=O)N[C@H](c1ccc([C@@H](CO)N(CCC(C)(C)C)S(=O)(=O)c2ccc3nccn3c2)s1)C(F)(F)F)C(c1ccccc1)c1ccccc1 [Example 71, N-[(1S)-1-(5-{(1R)-1-[(3,3-dimethylbutyl)(imidazo[1,2-a]pyridin-6-ylsulfonyl)amino]-2-hydroxyethyl}thiophen-2-yl)-2,2,2-trifluoroethyl]-Nα-(methoxycarbonyl)-β-phenyl-L-phenylalaninamide] | 6.64 |
| COC(=O)N[C@H](C(=O)N[C@H](c1ccc([C@@H](CO)N(CCC(C)(C)C)S(=O)(=O)c2ccc3ncccc3c2)s1)C(F)(F)F)C(c1ccccc1)c1ccccc1 [Example 73, Methyl [(2S)-1-{[(1S)-1-(5-{(1R)-1-[(3,3-dimethylbutyl)(quinolin-6-ylsulfonyl)amino]-2-hydroxyethyl}thiophen-2-yl)-2,2,2-trifluoroethyl]amino}-1-oxo-3,3-diphenylpropan-2-yl]carbamate] | 2.03 |
| COC(=O)N[C@H](C(=O)N[C@H](c1ccc([C@@H](CO)N(CCC(C)(C)C)S(=O)(=O)c2ccc3nc[nH]c3c2)s1)C(F)(F)F)C(c1ccccc1)c1ccccc1 [Example 74, N-[(1S)-1-(5-{(1R)-1-[(1H-benzimidazol-6-ylsulfonyl)(3,3-dimethylbutyl)amino]-2-hydroxyethyl}thiophen-2-yl)-2,2,2-trifluoroethyl]-Nα-(methoxycarbonyl)-β-phenyl-L-phenylalaninamide] | 0.45 |
| COC(=O)N[C@H](C(=O)N[C@@H](C)c1ccc([C@@H](CO)N(C(C)C)S(=O)(=O)c2ccc(N)cc2)s1)C(c1ccccc1)c1ccccc1 [Example 75, N-[(1S)-1-{5-[(1R)-1-{[(4-aminophenyl)sulfonyl](propan-2-yl)amino}-2-hydroxyethyl]thiophen-2-yl}ethyl]-Nα-(methoxycarbonyl)-β-phenyl-L-phenylalaninamide] | 7.89 |
